# Patent US6355630B1, “Estra-1,3,5(10)-triene-7α-thioethers” (priority 1997, dated 2002)
# pIC50: −log10 of the molar value.
# Columns and labels:
# [1] = biological target: T1, human estrogen receptor (Homo sapiens, UniProt P03372); test: In vitro estrogen receptor binding test procedure ([3H]-17β-estradiol competition); conditions: read-out: Receptor IC50
# T1 construct: expressed in transfected cells; host or cells: Chinese Hamster ovary (CHO) cells; ribosome-free cytosol
# T1 sequence (P03372 1-595): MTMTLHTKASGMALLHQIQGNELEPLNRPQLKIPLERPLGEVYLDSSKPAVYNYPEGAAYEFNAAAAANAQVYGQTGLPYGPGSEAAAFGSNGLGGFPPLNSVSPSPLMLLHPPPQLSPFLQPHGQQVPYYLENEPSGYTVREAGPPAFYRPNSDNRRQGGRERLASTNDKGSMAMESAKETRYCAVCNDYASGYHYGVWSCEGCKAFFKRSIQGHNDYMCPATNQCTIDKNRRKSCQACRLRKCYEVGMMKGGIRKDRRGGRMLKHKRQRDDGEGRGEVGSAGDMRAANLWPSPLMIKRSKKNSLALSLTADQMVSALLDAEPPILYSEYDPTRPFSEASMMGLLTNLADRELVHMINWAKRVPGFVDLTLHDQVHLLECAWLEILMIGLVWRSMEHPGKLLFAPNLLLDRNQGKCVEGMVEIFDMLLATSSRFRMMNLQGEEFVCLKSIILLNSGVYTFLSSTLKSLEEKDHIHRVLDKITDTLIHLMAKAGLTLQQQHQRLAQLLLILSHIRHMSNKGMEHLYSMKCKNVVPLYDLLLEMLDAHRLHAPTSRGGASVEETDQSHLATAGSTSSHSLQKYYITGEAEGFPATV
# Protocol: In vitro Estrogen Receptor Binding Test Procedure
# Chinese Hamster ovary (CHO) cells overexpressing the estrogen receptor were grown in […] dishes in DMEM+10% dextran coated charcoal, stripped fetal bovine serum. The plates were washed twice with PBS and once with 10 mM Tris-HCl, pH 7.4, 1 mM EDTA. Cells were harvested by scraping the surface and then the cell suspension was placed on ice. Cells were disrupted with a hand-held motorized tissue grinder using two, 10-second bursts. The crude preparation was centrifuged at 12,000 g for 20 minutes followed by a 60 minute spin at 100,000 G to produce a ribosome free cytosol. The cytosol was then frozen and stored at −80° C. Protein concentration of the cytosol was estimated using the BCA assay with reference standard protein.
# Binding Test Procedure Conditions
# 100 uG/100 uL of the receptor preparation was aliquoted per well. […] The plate was incubated at room temperature for 2.5 h. At the end of this incubation period 150 uL of ice-cold dextran coated charcoal (5% activated charcoal coated with 0.05% 69K dextran) was added to each well and the plate was immediately centrifuged at 99 g for 5 minutes at 4° C. 200 uL of the supernatant solution was then removed for scintillation counting. Samples were counted to 2% or 10 minutes, whichever occurs first. […] Also, wells containing radioactivity but no cytosol were processed with charcoal to estimate unremovable DPM of [^3H] […] 96-well plates were used because they have proven to bind the least amount of estradiol.
# Counts per minute (CPM) of radioactivity were automatically converted to disintegrated per minute (DPM) by the Beckman LS 7500 Scintillation Counter using a set of quenched standards to generate a H# for each sample. To calculate the % of estradiol binding in the presence of 100 or 500 fold competitor the following formula was applied:
# ((DPM sample−DPM not removed by charcoal/(DPM estradiol−DPM not removed by charcoal))×100%=% of estradiol binding
# For the generation of IC50 curves, % binding is plotted vs compound. […] Values are reported as IC50 values. […] For a description of these methods, see Hulme, E. C., ed. 1992. Receptor-Ligand Interactions: A Practical Approach. IRL Press, New York.(see especially chapter 8).
# Compounds were tested for their ability to displace estradiol in a human ER-receptor preparation as described above.
# [2] = system: Ishikawa uterine cells; test: Ishikawa cell alkaline phosphatase test procedure; assay type: cell-based, human; conditions: for Alkaline phosphatase activity, percent of response related to 1 nM 17β-estradiol: 48 h; for Behaviour in the uterine cell line (agonist/antagonist): in words, from Table 2
# Protocol: Ishikawa Cell Alkaline Phosphatase Test Procedure
# Cell Maintenance and Treatment
# Ishikawa cells were maintained in DMEM/F12 (50%:50%) containing phenol red+10% fetal bovine serum and the medium was supplemented with 2 mM Glutamax, 1% Pen/Strap and 1 mM sodium pyruvate. Five days prior to the beginning of each evaluation (treatment of cells) the medium was changed to phenol red-free DMEM/F12+10% dextran coated charcoal stripped serum. On the day before treatment, cells were harvested using 0.5% trypsin/EDTA and plated at a density of 5×10^4 cells/well in 96-well tissue culture plates. […] Cells were treated for 48 h prior to assay. […] Sample population for at each dose was n=8.
# Alkaline Phosphatase Test Procedure
# At the end of 48 h the media was aspirated and cells were washed three times with phosphate buffered saline (PBS); 50 μL of lysis buffer (0.1 M Tris-HCl, pH 9.8, 0.2% Triton X-100) was added to each well. Plates were placed at −80° C. for a minimum of 15 minutes. Plates were thawed at 37° C. followed by the addition of 150 μL of 0.1 M Tris-HCl, pH 9.8, containing 4 mM para-nitrophenylphosphate (pNPP) to each well (final concentration, 3 mM pNPP).
# Absorbance and slope calculations were made using the KineticCalc Application program (Bio-Tek Instruments, Inc., Winooski, Vt.). Results are expressed as the mean +/−S.D. of the rate of enzyme reaction (slope) averaged over the linear portion of the kinetic reaction curve (optical density readings every 5 minutes for 30 minutes absorbance reading).
# The four compounds were used as reference standards:
# A description of these methods is described by Holinka, C. F., Hata, H., Kuramoto, H. and Gurpide, E. (1986) Effects of steroid hormones and antisteroids on alkaline phosphatase activity in human endometrial cancer cells (Ishikawa Line). Cancer Research, 46:2771-2774, and by Littlefield, B. A., Gurpide, E., Markiewicz, L., McKinley, B. and Hochberg, R. B. (1990) A simple and sensitive microtiter plate estrogen bioassay based on stimulation alkaline phosphatase in Ishikawa cells; Estrogen action of D5 adrenal steroids. Endocrinology, 6:2757-2762.
# [3] = system: rat uterus; test: Rat uterotrophic/antiuterotrophic test procedure; assay type: in vivo; conditions: daily ip, 4-day immature rat
# Protocol: Rat Uterotrophic/Antiuterotrophic Test Procedure
# The estrogenic and antiestrogenic properties of the compounds were determined in a 4-day immature rat uterotrophic assay (as described previously by L. J. Black and R. L. Goode, Life Sciences, 26, 1453 (1980)). Immature Sprague-Dawley rats (female, 18 days old) were tested in groups of six. […] On day 4 the animals were sacrificed by CO2 asphyxiation and their uteri were removed and stripped of excess lipid, any fluid removed and the wet weight determined. A small section of one horn was submitted for histology and the remainder used to isolate total RNA in order to evaluate complement component 3 gene expression.
# Representative compounds of this invention were evaluated in the rat uterotrophic/antiuterotrophic assay to determine their in vivo effects on the rat uterus.
# [4] = 1 uM compound + 1 nM E2, antagonist mode
SMILES,pIC50 [1],"Alkaline phosphatase activity, percent of response related to 1 nM 17β-estradiol ([2]; 0.01 uM compound, agonist mode) [%]","Alkaline phosphatase activity, percent of response related to 1 nM 17β-estradiol ([2]; 0.1 uM compound, agonist mode) [%]","Alkaline phosphatase activity, percent of response related to 1 nM 17β-estradiol [2, 4] [%]","Alkaline phosphatase activity, percent of response related to 1 nM 17β-estradiol ([2]; 1 uM compound, agonist mode) [%]",Uterine wet weight ([3]; 1 ug Cpd) [mg],Uterine wet weight ([3]; 100 ug Cpd) [mg],Uterine wet weight ([3]; 1 ug E2 + 100 ug Cpd) [mg],Behaviour in the uterine cell line (agonist/antagonist) [2]
"C[C@]12CC[C@@H]3c4ccc(O)cc4C(=O)[C@@H](Sc4ccc(O)cc4)[C@H]3[C@@H]1CC[C@@H]2O [Example 2, (7α,17β) 3,17-Dihydroxy-7-(4-hydroxyphenyl)thio-estra-1,3,5(10)-triene-6-one]",5.60,7,14,87,42,39.4,83.1,–,–
"C[C@]12CC[C@@H]3c4ccc(O)cc4[C@@H](O)[C@@H](Sc4ccc(O)cc4)[C@H]3[C@@H]1CC[C@@H]2O [Example 3, (6α,7α,17β) 7-(4-Hydroxyphenyl)thio-estra-1,3,5(10)-triene-3,6,17-triol]",8.00,86,88,97,75,62.4,99.9,106.1,–
"CCCCN(C)C(=O)CCCCCCCCCCS[C@H]1[C@@H]2[C@H](CC[C@]3(C)[C@@H](O)CC[C@@H]23)c2ccc(O)cc2[C@H]1O [Example 17, (6α,7α,17β) 7-[10-(N-Butyl-N-methyl-carbamoyl)-decyl]thio-estra-1,3,5(10)-triene-3,6,17-triol]",6.40,0,0,28,1,36.5,64.2,–,pure estrogen antagonists
"C[C@]12CC[C@@H]3c4ccc(O)cc4C(=O)[C@@H](Sc4ccc(Br)cc4)[C@H]3[C@@H]1CC[C@@H]2O [Example 6, (7α,17β) 7-(4-Bromophenyl)thio-3,17-dihydroxy-estra-1,3,5(10)-trien-6-one]",5.82,31,100,109,104,29.0,97.7,–,fully efficacious agonists
"C[C@]12CC[C@@H]3c4ccc(O)cc4C[C@@H](Sc4ccc(Br)cc4)[C@H]3[C@@H]1CC[C@@H]2O [Example 8, (7α,17β) 7-(4-Bromophenyl)thio-estra-1,3,5(10)-triene-3,17-diol]",6.10,29,59,95,92,35.8,64.7,–,–
"CC12CCC3c4ccc(O)cc4CC(Sc4ccc(-c5ccc(C=O)cc5)cc4)C3C1CCC2O (stereo not drawn) [Example 12, (7α,17β) 7-(4-(4′-Formylbiphenyl)]thio-estra-1,3,5(10)-triene-3,17-diol]",6.52,17,67,92,89,–,–,–,–
